Measured values reported in ChEMBL document CHEMBL1201862, “PubChem BioAssay data set” (2004).
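Dose response: 5 concentrations. Exposure: 48 h. Format: 96-well plates. Endpoint: linear interpolation; highest concentration if not reached. Abbreviation: GI50, concentration required for 50% inhibition of growth.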 Calls of active or inactive are those of the source. No stated cut-off is given here; in the data, active = GI50 up to about 1.1 µM and inactive = higher.

What was measured:
Assay in all cases: inhibition of tumour cell growth, NCI panel, 48 h
HOP-18 = test system: HOP-18
U-251 = test system: U-251
OVCAR-3 = test system: OVCAR-3
A498 = test system: A498
M14 = test system: M14
LOX IMVI = test system: LOX IMVI
CAKI-1 = test system: CAKI-1
SF-268 = test system: SF-268
CCRF-CEM = test system: CCRF-CEM
OVCAR-4 = test system: OVCAR-4
HOP-92 = test system: HOP-92
KM-20L2 = test system: KM-20L2
M19-MEL = test system: M19-MEL
IGROV-1 = test system: IGROV-1
SW-620 = test system: SW-620
RXF 393 = test system: RXF 393
SK-MEL-5 = test system: SK-MEL-5
DMS-273 = test system: DMS-273
HCT-116 = test system: HCT-116
EKVX = test system: EKVX
SR = test system: SR
SF-539 = test system: SF-539
SK-OV-3 = test system: SK-OV-3
KM12 = test system: KM12
SNB-78 = test system: SNB-78
ACHN = test system: ACHN
HT-29 = test system: HT-29
HL-60 = test system: HL-60
TK-10 = test system: TK-10
786-0 = test system: 786-0
SF-295 = test system: SF-295
SK-MEL-2 = test system: SK-MEL-2
SN12C = test system: SN12C
A549 = test system: A549
UO-31 = test system: UO-31
OVCAR-8 = test system: OVCAR-8
NCI-H226 = test system: NCI-H226
COLO 205 = test system: COLO 205
HOP-62 = test system: HOP-62
RPMI-8226 = test system: RPMI-8226
LXFL 529 = test system: LXFL 529
RXF 631 = test system: RXF 631
NCI-H522 = test system: NCI-H522
HCC 2998 = test system: HCC 2998
MOLT-4 = test system: MOLT-4
NCI-H23 = test system: NCI-H23
UACC-257 = test system: UACC-257
OVCAR-5 = test system: OVCAR-5
NCI-H460 = test system: NCI-H460
DMS-114 = test system: DMS-114
XF498 = test system: XF498
UACC-62 = test system: UACC-62
SNB-75 = test system: SNB-75
K562 = test system: K562
HCT-15 = test system: HCT-15
DLD-1 = test system: DLD-1
SNB-19 = test system: SNB-19
Malme-3M = test system: Malme-3M
SK-MEL-28 = test system: SK-MEL-28

**Q.** Which results are given for `Fc1cccc(Cl)c1C1SCc2nc3ccccc3n21` (stereo unspecified)?
**A.** GI50 (HOP-18): 29.7 µM (inactive); GI50 (U-251): 27.2 µM (inactive); GI50 (OVCAR-3): 21.9 µM (inactive); GI50 (A498): 83.2 µM (inactive); GI50 (M14): 34 µM (inactive); GI50 (LOX IMVI): 17.3 µM (inactive); GI50 (CAKI-1): 27.1 µM (inactive); GI50 (SF-268): 50.5 µM (inactive); GI50 (CCRF-CEM): 25.3 µM (inactive); GI50 (OVCAR-4): 31.6 µM (inactive); GI50 (HOP-92): 6.62 µM (inactive); GI50 (KM-20L2): 17.2 µM (inactive); GI50 (M19-MEL): 26.1 µM (inactive); GI50 (IGROV-1): 29.1 µM (inactive); GI50 (SW-620): 37.2 µM (inactive); GI50 (RXF 393): 31.6 µM (inactive); GI50 (SK-MEL-5): 15.4 µM (inactive); GI50 (DMS-273): 22.6 µM (inactive); GI50 (HCT-116): 22.4 µM (inactive); GI50 (EKVX): 26.4 µM (inactive); GI50 (SR): 17.3 µM (inactive); GI50 (SF-539): 22.8 µM (inactive); GI50 (SK-OV-3): 22.9 µM (inactive); GI50 (KM12): 24.8 µM (inactive); GI50 (SNB-78): 22.2 µM (inactive); GI50 (ACHN): 39.2 µM (inactive); GI50 (HT-29): 25.5 µM (inactive); GI50 (HL-60): 11 µM (inactive); GI50 (TK-10): 57 µM (inactive); GI50 (786-0): 45.7 µM (inactive); GI50 (SF-295): 23.7 µM (inactive); GI50 (SK-MEL-2): 21.1 µM (inactive); GI50 (SN12C): 41.4 µM (inactive); GI50 (A549): 37.2 µM (inactive); GI50 (UO-31): 27.9 µM (inactive); GI50 (OVCAR-8): 38.1 µM (inactive); GI50 (NCI-H226): 36.6 µM (inactive); GI50 (COLO 205): 22.8 µM (inactive); GI50 (HOP-62): 33.2 µM (inactive); GI50 (RPMI-8226): 17.1 µM (inactive); GI50 (LXFL 529): 35.9 µM (inactive); GI50 (RXF 631): 25.3 µM (inactive); GI50 (NCI-H522): 17.3 µM (inactive); GI50 (HCC 2998): 31.7 µM (inactive); GI50 (MOLT-4): 18.8 µM (inactive); GI50 (NCI-H23): 24.3 µM (inactive); GI50 (UACC-257): 21.9 µM (inactive); GI50 (OVCAR-5): 31.8 µM (inactive); GI50 (NCI-H460): 33 µM (inactive); GI50 (DMS-114): 20.7 µM (inactive); GI50 (XF498): 27.7 µM (inactive); GI50 (UACC-62): 15.7 µM (inactive); GI50 (SNB-75): 38.5 µM (inactive); GI50 (K562): 25.8 µM (inactive); GI50 (HCT-15): 31.3 µM; GI50 (DLD-1): 28.8 µM (inactive); GI50 (SNB-19): 46.1 µM (inactive); GI50 (Malme-3M): 14.8 µM (inactive)

**Q.** `Oc1ccc2c(O)cc(-c3ccccc3)nc2c1` was tested. Which GI50 (HOP-18) did it give?
**A.** 26.2 µM (inactive)

**Q.** What about the GI50 (U-251) of the same compound?
**A.** 31.3 µM (inactive)

**Q.** And the GI50 (A498)?
**A.** 32.1 µM (inactive)

**Q.** And the GI50 (M14)?
**A.** 19.7 µM (inactive)

**Q.** What about the GI50 (LOX IMVI) of the same compound?
**A.** 17.5 µM (inactive)

**Q.** What about the GI50 (CAKI-1) of the same compound?
**A.** 24.4 µM (inactive)

**Q.** What about the GI50 (SF-268) of the same compound?
**A.** 32.4 µM (inactive)

**Q.** What about the GI50 (CCRF-CEM) of the same compound?
**A.** 18.2 µM (inactive)

**Q.** And the GI50 (OVCAR-4)?
**A.** 26 µM (inactive)

**Q.** And the GI50 (HOP-92)?
**A.** 29.3 µM (inactive)

**Q.** And the GI50 (SK-MEL-28)?
**A.** 38.3 µM (inactive)

**Q.** What about the GI50 (KM-20L2) of the same compound?
**A.** 19.9 µM (inactive)

**Q.** And the GI50 (M19-MEL)?
**A.** 19.5 µM (inactive)

**Q.** What about the GI50 (IGROV-1) of the same compound?
**A.** 29 µM (inactive)

**Q.** What about the GI50 (SW-620) of the same compound?
**A.** 16.4 µM (inactive)

**Q.** What about the GI50 (RXF 393) of the same compound?
**A.** 6.22 µM (inactive)

**Q.** And the GI50 (SK-MEL-5)?
**A.** 30.1 µM (inactive)

**Q.** What about the GI50 (DMS-273) of the same compound?
**A.** 28.1 µM (inactive)

**Q.** And the GI50 (HCT-116)?
**A.** 17.4 µM (inactive)

**Q.** What about the GI50 (EKVX) of the same compound?
**A.** 35.9 µM (inactive)

**Q.** And the GI50 (SR)?
**A.** 38.1 µM (inactive)

**Q.** What about the GI50 (SF-539) of the same compound?
**A.** 37.2 µM (inactive)

**Q.** What about the GI50 (SK-OV-3) of the same compound?
**A.** 28.4 µM (inactive)

**Q.** What about the GI50 (KM12) of the same compound?
**A.** 22.2 µM (inactive)

**Q.** What about the GI50 (SNB-78) of the same compound?
**A.** 48 µM (inactive)

**Q.** What about the GI50 (ACHN) of the same compound?
**A.** 21.4 µM (inactive)

**Q.** What about the GI50 (HT-29) of the same compound?
**A.** 23.3 µM (inactive)

**Q.** What about the GI50 (HL-60) of the same compound?
**A.** 21.5 µM (inactive)

**Q.** What about the GI50 (TK-10) of the same compound?
**A.** 40.7 µM (inactive)

**Q.** And the GI50 (786-0)?
**A.** 31.2 µM (inactive)

**Q.** And the GI50 (SF-295)?
**A.** 75 µM (inactive)

**Q.** What about the GI50 (SK-MEL-2) of the same compound?
**A.** 31.7 µM (inactive)

**Q.** What about the GI50 (SN12C) of the same compound?
**A.** 24.3 µM (inactive)

**Q.** And the GI50 (A549)?
**A.** 23.1 µM (inactive)

**Q.** What about the GI50 (UO-31) of the same compound?
**A.** 19.3 µM (inactive)

**Q.** And the GI50 (OVCAR-8)?
**A.** 32.7 µM (inactive)

**Q.** And the GI50 (NCI-H226)?
**A.** 65.3 µM (inactive)

**Q.** And the GI50 (COLO 205)?
**A.** 17 µM (inactive)

**Q.** What about the GI50 (HOP-62) of the same compound?
**A.** 28.2 µM (inactive)

**Q.** And the GI50 (RPMI-8226)?
**A.** 17.5 µM (inactive)

**Q.** And the GI50 (LXFL 529)?
**A.** 26.5 µM (inactive)

**Q.** And the GI50 (RXF 631)?
**A.** 30.5 µM (inactive)

**Q.** What about the GI50 (NCI-H522) of the same compound?
**A.** 27 µM (inactive)

**Q.** And the GI50 (HCC 2998)?
**A.** 34 µM (inactive)

**Q.** What about the GI50 (MOLT-4) of the same compound?
**A.** 21.1 µM (inactive)

**Q.** And the GI50 (NCI-H23)?
**A.** 36.4 µM (inactive)

**Q.** What about the GI50 (UACC-257) of the same compound?
**A.** 21.7 µM (inactive)

**Q.** And the GI50 (OVCAR-5)?
**A.** 58.9 µM (inactive)

**Q.** And the GI50 (NCI-H460)?
**A.** 17.8 µM (inactive)

**Q.** What about the GI50 (DMS-114) of the same compound?
**A.** 18.7 µM (inactive)

**Q.** And the GI50 (XF498)?
**A.** 25.1 µM (inactive)

**Q.** What about the GI50 (UACC-62) of the same compound?
**A.** 19.9 µM (inactive)

**Q.** What about the GI50 (SNB-75) of the same compound?
**A.** 22.1 µM (inactive)

**Q.** What about the GI50 (K562) of the same compound?
**A.** 19.2 µM (inactive)

**Q.** What about the GI50 (HCT-15) of the same compound?
**A.** 15.8 µM

**Q.** And the GI50 (DLD-1)?
**A.** 18.3 µM (inactive)

**Q.** And the GI50 (SNB-19)?
**A.** 32.4 µM (inactive)

**Q.** What about the GI50 (Malme-3M) of the same compound?
**A.** 34.4 µM (inactive)
